In general, pKi refers to the Ki on a negative log10 scale, so that one unit is a factor of ten. Higher therefore signals a small Ki.

Experiment [1] deals with T1, Gamma-aminobutyric acid receptor subunit alpha-3 (Homo sapiens, UniProt P34903).
T1 sequence (P34903 whole entry): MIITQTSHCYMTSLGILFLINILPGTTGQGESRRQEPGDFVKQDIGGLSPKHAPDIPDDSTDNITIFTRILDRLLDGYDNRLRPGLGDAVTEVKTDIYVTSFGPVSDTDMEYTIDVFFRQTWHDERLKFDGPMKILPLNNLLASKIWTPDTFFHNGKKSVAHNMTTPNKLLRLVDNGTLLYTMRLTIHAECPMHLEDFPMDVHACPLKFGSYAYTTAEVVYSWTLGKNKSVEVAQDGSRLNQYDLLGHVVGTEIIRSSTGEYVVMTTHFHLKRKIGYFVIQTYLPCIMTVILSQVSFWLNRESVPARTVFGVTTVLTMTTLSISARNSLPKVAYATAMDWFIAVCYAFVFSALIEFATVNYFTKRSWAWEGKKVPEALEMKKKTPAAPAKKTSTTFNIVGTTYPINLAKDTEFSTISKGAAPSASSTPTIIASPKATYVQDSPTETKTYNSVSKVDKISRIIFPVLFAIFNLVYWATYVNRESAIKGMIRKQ

The target in experiment [2] is Gamma-aminobutyric acid (GABA) B receptor 1 (Rattus norvegicus, UniProt Q6MFX8).

pKi: −log10 of the molar value.

Sequence of Gamma-aminobutyric acid (GABA) B receptor 1 (Q6MFX8 whole entry): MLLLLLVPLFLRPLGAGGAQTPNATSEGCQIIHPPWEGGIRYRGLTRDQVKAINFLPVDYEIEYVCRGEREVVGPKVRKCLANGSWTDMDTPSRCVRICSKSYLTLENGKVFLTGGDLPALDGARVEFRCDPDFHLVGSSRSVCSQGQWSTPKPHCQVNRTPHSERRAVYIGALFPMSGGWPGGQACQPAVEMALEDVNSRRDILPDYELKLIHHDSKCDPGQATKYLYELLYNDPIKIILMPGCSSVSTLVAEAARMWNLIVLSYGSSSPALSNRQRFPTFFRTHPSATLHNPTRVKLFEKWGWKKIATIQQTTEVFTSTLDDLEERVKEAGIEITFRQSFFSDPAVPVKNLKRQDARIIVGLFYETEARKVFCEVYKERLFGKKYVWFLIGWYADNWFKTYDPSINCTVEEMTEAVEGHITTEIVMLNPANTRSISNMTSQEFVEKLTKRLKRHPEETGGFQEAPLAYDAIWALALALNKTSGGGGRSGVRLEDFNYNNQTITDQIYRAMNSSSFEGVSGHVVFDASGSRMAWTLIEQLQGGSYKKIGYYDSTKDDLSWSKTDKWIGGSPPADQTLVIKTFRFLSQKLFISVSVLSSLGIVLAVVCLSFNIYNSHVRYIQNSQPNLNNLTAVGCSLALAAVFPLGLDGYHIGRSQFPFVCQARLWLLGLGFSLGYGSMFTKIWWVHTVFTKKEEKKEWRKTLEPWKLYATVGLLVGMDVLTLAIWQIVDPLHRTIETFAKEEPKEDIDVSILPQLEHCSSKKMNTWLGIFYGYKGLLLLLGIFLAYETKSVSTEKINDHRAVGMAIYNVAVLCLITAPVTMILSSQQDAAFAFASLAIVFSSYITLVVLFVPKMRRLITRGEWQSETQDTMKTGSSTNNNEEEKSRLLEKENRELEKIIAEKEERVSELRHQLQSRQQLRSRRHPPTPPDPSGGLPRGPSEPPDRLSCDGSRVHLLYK

`CCCCP(=O)(O)CCCN` [CGP36742] showed a negative-log Ki (pKi) in experiment [1] of under 5.00.

`CP(=O)(O)CCCN` [CGP35024] gave a pKi in experiment [1] of 6.12.

In the case of `NCCC[PH](=O)O` [(3-aminopropyl)phosphinic acid], the pKi in experiment [2] was 8.30; in experiment [1], 5.61.
